Data reported in patent US10092584B2 (Achillion Pharmaceuticals, Inc., priority 2015, dated 2018).
Like-named read-outs stand apart in the source and are kept apart here.

Target: T1, Human Factor D (Homo sapiens, UniProt P00746)
T1 construct: purified from human serum; purchased Complement Technology, Inc; host or cells: human serum
Test: Human Factor D assay (Example 8)
Type: biochemical
In short: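 Thioesterase activity monitored with Z-L-Lys-SBzl plus Ellman's reagent (DTNB), each 100 μM final, after 5 min room-temperature compound preincubation of 80 nM human serum Factor D in pH 7.5 Tris (50 mM)/1M NaCl.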

[1] = Table 3, Human Factor D 80 nM, substrate Z-L-Lys-SBzl, read-out: IC50 (Stars)
[2] = Table 1, Human Factor D 80 nM, substrate Z-L-Lys-SBzl, read-out: IC50
[3] = Table 2, Human Factor D 80 nM, substrate Z-L-Lys-SBzl, read-out: IC50

T1 sequence (P00746 26-253): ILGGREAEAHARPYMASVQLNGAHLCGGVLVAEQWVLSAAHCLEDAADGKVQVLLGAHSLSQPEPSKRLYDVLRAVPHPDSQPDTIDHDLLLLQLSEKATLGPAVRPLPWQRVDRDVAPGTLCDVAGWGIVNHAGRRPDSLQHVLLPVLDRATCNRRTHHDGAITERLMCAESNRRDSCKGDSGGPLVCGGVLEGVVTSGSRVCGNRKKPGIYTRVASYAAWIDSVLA

For `CC(=O)c1nn(CC(=O)N2C[Si](C)(C)C[C@H]2C(=O)Nc2cccc(Br)n2)c2ccccc12` [Compound 271, (R)-1-(2-(3-acetyl-1H-indazol-1-yl)acetyl)-N-(6-bromopyridin-2-yl)-3,3-dimethyl-1,3-azasilolidine-5-carboxamide], the IC50 [1] was 1000 to 10000 nM.
In the case of `CC(=O)c1nn(CC(=O)N2C[C@H](F)C[C@H]2C(=O)Nc2cccc(-c3ccc4nc[nH]c4c3F)c2F)c2ccccc12` [Compound 455, (2S,4R)-1-(2-(3-acetyl-1H-indazol-1-yl)acetyl)-4-fluoro-N-(2-fluoro-3-(7-fluoro-1H-benzo[d]imidazol-6-yl)phenyl)pyrrolidine-2-carboxamide], the IC50 [1] is reported as < 1000 nM.
With `CC(=O)n1cc(NC(=O)[C@H]2CCCN2C(=O)NCc2cccc(Cl)c2F)c2ccccc21` [Compound 9, (R)-N2-(1-acetyl-1H-indol-3-yl)-N1-(3-chloro-2-fluorobenzyl)pyrroli-dine-1,2-dicarboxamide] the IC50 [2] was > 10000 nM.
For `O=C(NCc1cccc(Cl)c1F)[C@@H]1C[C@@H](F)CN1C(=O)c1csc(-c2cccnc2)n1` [Compound 50, (2S,4R)-N-(3-chloro-2-fluorobenzyl)-4-fluoro-1-(2-(pyridin-3-yl)thiazole-4-carbonyl)pyrrolidine-2-carboxamide], the IC50 [2] was > 10000 nM.
For `CC(=O)c1cn(CC(=O)N2C[C@H](F)C[C@H]2C(=O)Nc2cccc(-c3ccccc3Cl)c2F)c2cccc(C#N)c12` [Compound 97, (2S,4R)-1-(2-(3-acetyl-4-cyano-1H-indol-1-yl)acetyl)-N-(2′-chloro-2-fluorobiphenyl-3-yl)-4-fluoropyrrolidine-2-carboxamide], the IC50 was < 1000 nM.
With `CC(=O)n1cc(NC(=O)[C@@H]2C[C@H](F)CN2C(=O)NCc2cccc(Cl)c2F)c2ccccc21` [Compound 4, (2S,4S)-N2-(1-acetyl-1H-indol-3-yl)-N1-(3-chloro-2-fluorobenzyl)-4-fluoropyrrolidine-1,2-dicarboxamide] the IC50 [2] was > 10000 nM.
In the case of `CC(=O)c1cn(CC(=O)N2C[C@H](F)C[C@H]2c2nc3cc(Cl)ccc3[nH]2)c2ccccc12` [Compound 15], the IC50 [2] is reported as > 10000 nM.
In the case of `CC(=O)n1cc(NC(=O)[C@@H]2C[C@H](F)CN2C(=O)NCc2ccccc2)c2ccccc21` [Compound 5, (2S,4S)-N2-(1-acetyl-1H-indol-3-yl)-N1-benzyl-4-fluoropyrrolidine-1,2-dicarboxamide], the IC50 [2] is reported as > 10000 nM.
`Cc1cc2c(s1)c(C(N)=O)nn2CC(=O)N1C[C@H](F)C[C@H]1C(=O)Nc1cccc(-c2ccccc2Cl)c1F` [Compound 113, 1-(2-((2S,4R)-2-((2′-Chloro-2-fluoro-[1,1′-biphenyl]-3-yl)carbamoyl)-4-fluoropyrrolidin-1-yl)-2-oxoethyl)-5-methyl-1H-thieno[3,2-c]pyrazole-3-carboxamide] was tested, and the IC50 [2] was < 1000 nM.
`CC(=O)c1cn(CC(=O)N2C[C@H](F)C[C@H]2C(=O)Nc2cccc(-c3ccccc3Cl)c2F)c2c(-c3cn[nH]c3)cccc12` [Compound 114, (2S,4R)-1-(2-(3-acetyl-7-(1H-pyrazol-4-yl)-1H-indol-1-yl)acetyl)-N-(2′-chloro-2-fluorobiphenyl-3-yl)-4-fluoropyrrolidine-2-carboxamide] was tested, and the IC50 [2] was < 1000 nM.
In the case of `CC(=O)c1cn(CC(=O)N2C[C@H](F)C[C@H]2C(=O)Nc2cccc(-c3ccccc3Cl)c2F)c2c(C3CC3)cccc12` [Compound 115, (2S,4R)-1-(2-(3-acetyl-7-cyclopropyl-1H-indol-1-yl)acetyl)-N-(2′-chloro-2-fluorobiphenyl-3-yl)-4-fluoropyrrolidine-2-carboxamide], the IC50 is reported as < 1000 nM.
For `NC(=O)n1cc(NC(=O)N2C[C@H](F)C[C@H]2Cn2cc(-c3ccc(F)cc3)nn2)c2ccccc21` [Compound 28, 3-((2S,4R)-4-fluoro-2-((4-(4-fluorophenyl)-1H-1,2,3-triazol-1-yl)methyl)pyrrolidine-1-carboxamido)-1H-indole-1-carboxamide], the IC50 [2] was > 10000 nM.
For `CC(=O)c1nn(CC(=O)N2[C@@H]3C[C@@H]3C[C@H]2C(=O)Nc2cccc(-c3ccc4[nH]cnc4c3Cl)c2F)c2ccccc12` [Compound 463, (1R,3S,5R)-2-(2-(3-acetyl-1H-indazol-1-yl)acetyl)-N-(3-(4-chloro-1H-benzo[d]imidazol-5-yl)-2-fluorophenyl)-2-azabicyclo[3.1.0] hexane-3-carboxamide], the IC50 [1] was < 1000 nM.
With `NC(=O)n1cc(NC(=O)N2C[C@H](F)C[C@H]2C(=O)NS(=O)(=O)c2cccc(Cl)c2F)c2ccccc21` [Compound 6, (2S,4R)-N1-(1-carbamoyl-1H-indol-3-yl)-N2-(3-chloro-2-fluorophenylsulfonyl)-4-fluoropyrrolidine-1,2-dicarboxamide] the IC50 [2] was > 10000 nM.
`CC(=O)c1cn(CC(=O)N2C[C@H](F)C[C@H]2C(=O)NCc2cc(P(=O)(O)O)cc(Cl)c2F)c2ccccc12` [Compound 63, 3-(((2S,4R)-1-(2-(3-acetyl-1H-indol-1-yl)acetyl)-4-fluoropyrrolidine-2-carboxamido)methyl)-5-chloro-4-fluorophenylphos-phonic acid] was tested, and the IC50 was < 1000 nM.
In the case of `O=C(NCc1cccc(Cl)c1F)[C@@H]1C[C@@H](F)CN1C(=O)Cn1cc(-c2cnco2)c2ccccc21` [Compound 133, (2S,4R)-N-(3-chloro-2-fluorobenzyl)-4-fluoro-1-(2-(3-(oxazol-5-yl)-1H-indol-1-yl)acetyl) pyrrolidine-2-carboxamide], the IC50 [3] is reported as < 1000 nM.
`CC(=O)c1nn(CC(=O)N2C[C@H](F)C[C@H]2C(=O)NCC23CC4CC(CC(C4)C2)C3)c2ccccc12` [Compound 397, (2S,4R)-1-(2-(3-acetyl-1H-indazol-1-yl)acetyl)-N-(((3S,5S,7S)-adamantan-1-yl)methyl)-4-fluoropyrrolidine-2-carboxamide] was tested, and the IC50 [1] was < 1000 nM.
Compound `CC(=O)c1nn(CC(=O)N2C[Si](C)(C)C[C@H]2C(=O)NCc2cccc(Cl)c2F)c2ccccc12` [Compound 268, (R)-1-(2-(3-acetyl-1H-indazol-1-yl)acetyl)-N-(3-chloro-2-fluorobenzyl)-3,3-dimethyl-1,3-azasilolidine-5-carboxamide] has an IC50 [1] of 1000 to 10000 nM.
In the case of `COC(=O)/C=C/c1cccc(NC(=O)[C@@H]2C[C@@H](F)CN2C(=O)Cn2nc(C(N)=O)c3ccccc32)c1F` [Compound 389, (E)-methyl 3-(3-((2S,4R)-1-(2-(3-carbamoyl-1H-indazol-1-yl)acetyl)-4-fluoropyrrolidine-2-carboxamido)-2-fluorophenyl) acrylate], the IC50 [1] is reported as 1000 to 10000 nM.
With `O=C(c1cn(CC(=O)N2C[C@H](F)C[C@H]2C(=O)NCc2cccc(Cl)c2F)c2ccccc12)C1CC1` [Compound 24, (2S,4R)-N-(3-chloro-2-fluorobenzyl)-1-(2-(3-(cyclopropanecarbonyl)-1H-indol-1-yl)acetyl)-4-fluoropyrrolidine-2-carboxamide] the IC50 [2] was < 1000 nM.
For `CC(=O)c1cn(CC(=O)N2C[C@H](F)C[C@H]2C(=O)Nc2cccc(-c3ccccc3Cl)c2F)c2cc(F)ccc12` [Compound 325, (2S,4R)-1-(2-(3-acetyl-6-fluoro-1H-indol-1-yl)acetyl)-N-(2′-chloro-2-fluoro-[1,1′-biphenyl]-3-yl)-4-fluoropyrrolidine-2-carboxamide], the IC50 [1] was < 1000 nM.
With `NC(=O)c1nn(CC(=O)N2C[C@H](F)C[C@H]2C(=O)Nc2cccc(-c3ccccc3Cl)c2F)c2cc(Cl)sc12` [Compound 139, 5-Chloro-1-(2-((2S,4R)-2-((2′-chloro-2-fluoro-[1,1′-biphenyl]-3-yl)carbamoyl)-4-fluoropyrrolidin-1-yl)-2-oxoethyl)-1H-thieno[3,2-c]pyrazole-3-carboxamide] the IC50 [3] was < 1000 nM.
`CC(=O)c1nn(CC(=O)N2C[C@H](F)C[C@H]2C(=O)Nc2cccc(-c3ccccc3Cl)c2F)c2cc(C)sc12` [Compound 131, (2S,4R)-1-(2-(3-acetyl-5-methyl-1H-thieno[3,2-c]pyrazol-1-yl)acetyl)-N-(2′-chloro-2-fluorobiphenyl-3-yl)-4-fluoropyrrolidine-2-carboxamide] was tested, and the IC50 [3] was < 1000 nM.
In the case of `CC(=O)Nc1cccc2c1c(C(C)=O)cn2CC(=O)N1C[C@H](F)C[C@H]1C(=O)Nc1cccc(-c2ccccc2Cl)c1F` [Compound 91, (2S,4R)-1-(2-(4-acetamido-3-acetyl-1H-indol-1-yl)acetyl)-N-(2′-chloro-2-fluorobiphenyl-3-yl)-4-fluoropyrrolidine-2-carboxamide], the IC50 [2] is reported as > 10000 nM.
With `N[C@@H](Cc1c[nH]c2ccccc12)C(=O)N1C[C@H](F)C[C@H]1C(=O)NCc1cccc(Cl)c1F` [Compound 39, (2S,4R)-1-((S)-2-amino-3-(1H-indol-3-yl)propanoyl)-N-(3-chloro-2-fluorobenzyl)-4-fluoropyrrolidine-2-carboxamide] the IC50 [2] was > 10000 nM.
For `O=C(NCc1cccc(Cl)c1F)[C@@H]1C[C@@H](F)CN1C(=O)Cn1nc(-c2cn[nH]c2)c2ccncc21` [Compound 73, (2S,4R)-1-(2-(3-(1H-pyrazol-4-yl)-1H-pyrazolo[3,4-c]pyridin-1-yl)acetyl)-N-(3-chloro-2-fluorobenzyl)-4-fluoropyrrolidine-2-carboxamide], the IC50 [2] was < 1000 nM.
With `CC(=O)c1cn(CC(=O)N2C[C@H](F)C[C@H]2C(=O)Nc2cccc(Br)n2)c2ccc(C3(N4C(=O)c5ccccc5C4=O)CC3)cc12` [Compound 81, (2S,4R)-1-(2-(3-acetyl-5-(1-(1,3-dioxoisoindolin-2-yl)cyclopropyl)-1H-indol-1-yl)acetyl)-N-(6-bromopyridin-2-yl)-4-fluoropyrrolidine-2-carboxamide] the IC50 was < 1000 nM.
In the case of `CC(=O)c1cn(CC(=O)N2C[C@H](F)C[C@H]2C(=O)Nc2cccc(-c3ccc(F)c(F)c3Cl)c2F)c2ccccc12` [Compound 93, (2S,4R)-1-(2-(3-acetyl-1H-indol-1-yl)acetyl)-N-(2′-chloro-2,3′,4′-trifluorobiphenyl-3-yl)-4-fluoropyrrolidine-2-carboxamide], the IC50 is reported as < 1000 nM.
For `CC(=O)c1nn(CC(=O)N2C[C@H](F)C[C@H]2C(=O)Nc2cccc(-c3ccc4c(c3)CNCC4)c2F)c2ccccc12` [Compound 451, (2S,4R)-1-(2-(3-Acetyl-1H-indazol-1-yl)acetyl)-4-fluoro-N-(2-fluoro-3-(1,2,3,4-tetrahydroisoquinolin-7-yl)phenyl)pyrrolidine-2-carboxamide], the IC50 [1] was < 1000 nM.
